# From paper PMC10590056, “Design and synthesis of cabotegravir derivatives bearing 1,2,3-triazole and evaluation of anti-liver cancer activity” (Frontiers in Pharmacology, 2023)
# Several values for one entry are separate records, joined by “and”; a condition that tells them apart may be missing. Identical values can stand only once. Like-named read-outs stand apart in the source and are kept apart here.
# Columns and labels:
# Format in all cases: cell-based
# [1] = test system: HepG2 cells; assay: MTT assay for cell proliferation and cytotoxicity, HepG2; parameters: key to Inhibitory rate: inhibition rate = 1 - mean A490 sample/mean A490 control (fraction)
# Procedure, shortened: (§1)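 Proliferation read-out is MTT reduction (4 h) after 48 h treatment with KJ-5 or KJ-12 across 0, 1, 2, 4, 8, 16 and 32 μM. Cultures in 10% FBS DMEM, 37 °C, plated at 10^5 cells/mL; A490 of DMSO-dissolved formazan compared with untreated control.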
# [2] = test system: MCF-7 cells; assay: MTT assay for cell proliferation, MCF-7; parameters: key to Inhibitory rate / Inhibition rate: inhibition rate = 1 - mean A490 sample/mean A490 control (fraction)
# Procedure, shortened: as §1
# [3] = test system: KYSE-30 cells; assay: MTT assay for cell proliferation, KYSE-30; parameters: key to Inhibitory rate: inhibition rate = 1 - mean A490 sample/mean A490 control (fraction)
# Procedure, shortened: as §1
# [4] = test system: HepG2 cells; assay: DAPI staining for cell apoptosis (morphology); details: HepG2, 2, 4, 8 μM, 24 h
# Experimental: Apoptotic morphological changes were determined by DAPI staining. HepG2 cells were seeded in a 48-well plate and treated with different concentrations of KJ-5 and KJ-12 (2, 4, and 8 μM) for 24 h. After 24 h, they were then washed with PBS and fixed with 4% paraformaldehyde for 20 min. Subsequently, they were then washed with PBS and treated with DAPI (10 μg/mL) at 37°C for 5 min. After washing with PBS, the cells were resuspended in PBS for the rest of the experiment. A fluorescence microscope was used to observe the apoptotic morphological changes.
# [5] = test system: p-H2AX in HepG2 cells; assay: H2AX phosphorylation by immunofluorescence and Western blotting; details: HepG2, 24 h
# Experimental: HepG2 cells were plated in laser confocal dishes (Nest, China), followed by the addition of KJ-5 or KJ-12 for 24 h. Then, 4% paraformaldehyde was added to each laser confocal dish for 20 min after rinsing with PBS. Before the goat serum was added to block for 1 h, 0.5% Triton X-100 was used to penetrate HepG2 for 30 min. Subsequently, the cells were incubated with p-H2AX (Cell Signaling Technology, MA, United States) at a 1:800 dilution at 4°C overnight. The cells were rinsed with PBS and incubated with Alexa Fluor 488 (Proteintech, Wuhan, China) at a 1:1000 dilution in dark at room temperature for 1 h. DAPI was used to stain the cell nucleus for 5 min. Then, the cells were rinsed with PBS before observing the cells under a laser confocal microscope (Nikon, Tokyo, Japan).
# After being pretreated with either KJ-5 or KJ-12 at concentrations of 2, 4, or 8 μM for 24 h, the cells were harvested and lysed using an ice-cold cell lysis buffer from Beyotime Biotechnology (Shanghai, China). The proteins were mixed with a loading buffer and denatured by heating at 95°C–100°C for 5–10 min. Equal amounts of protein were loaded onto a 10% SDS-PAGE gel along with a molecular weight marker and separated by electrophoresis for 2 h. The separated proteins were transferred onto a PVDF membrane, which was blocked with 5% non-fat milk for non-specific binding sites on the membrane. […]
# [6] = test system: Bcl-2, Bax, cleaved caspase-9, cleaved caspase-3, cleaved PARP in HepG2 cells; assay: Western blot of mitochondrial apoptotic proteins
# Experimental: After being pretreated with either KJ-5 or KJ-12 at concentrations of 2, 4, or 8 μM for 24 h, the cells were harvested and lysed using an ice-cold cell lysis buffer from Beyotime Biotechnology (Shanghai, China). The proteins were mixed with a loading buffer and denatured by heating at 95°C–100°C for 5–10 min. Equal amounts of protein were loaded onto a 10% SDS-PAGE gel along with a molecular weight marker and separated by electrophoresis for 2 h. The separated proteins were transferred onto a PVDF membrane, which was blocked with 5% non-fat milk for non-specific binding sites on the membrane. Then, the membrane was incubated with primary antibodies at 4°C overnight. Following incubation with the primary antibody, the membrane was incubated with HRP-conjugated goat anti-rabbit or goat anti-mouse IgG at 37°C for 1 h. Protein bands were visualized on the PVDF membrane using an ECL hypersensitive chemiluminescence solution and a Bio-Rad gel imaging and analysis system.
# [7] = HepG2, fraction, per experiment
# [8] = MCF-7, fraction, per experiment
structure (smiles),measurement,setting,value
COc1c2n(cc(C(=O)Nc3cccc(-c4cn(-c5c(C)cc(C)cc5C)nn4)c3)c1=O)C[C@H]1OC[C@H](C)N1C2=O [KJ-12],Inhibitory rate,[1]; [7],0.742 and 0.7786 and 0.787
same,ODtreated/ODcontrol,[1]; [7],0.258 and 0.2214 and 0.213
same,inhibition at 4 µM,"[1]; Homo sapiens, HepG2, liver cancer cells, 4 μM, read-out: Inhibition rate on liver cancer cells",~50%
same,IC50,"[1]; Homo sapiens, HepG2, 48 h, MTT",4.07 ± 0.09 µM
same,inhibition at 16 µM,"[1]; Homo sapiens, preliminary screening, HepG2, 16 μM, 48 h, mean±SD, unit inferred, read-out: Inhibition rate (16μM), 48 h, HepG2",76.9 ± 2.4%
same,IC50,"[2]; Homo sapiens, MCF7, 48 h, MCF-7, 48 h, MTT, read-out: IC50 MCF-7",8.55 ± 0.6 µM
same,IC50,"[2]; Homo sapiens, MCF7, MCF-7, one of three experiments, unit inferred, read-out: IC50, single experiment, MCF-7",9.23 µM
same,inhibition at 16 µM,"[2]; Homo sapiens, MCF7, preliminary screening, MCF-7, 16 μM, 48 h, mean±SD, unit inferred, read-out: Inhibition rate (16μM), 48 h, MCF-7",54.7 ± 1.79%
same,Inhibitory rate,"[2]; MCF-7, group 1 (concentration), fraction, single experiments",0.2053 and 0.2025 and 0.1943
same,ODtreated/ODcontrol,"[2]; MCF-7, group 1 (concentration), single experiments",0.7947 and 0.7975 and 0.8057
same,Inhibitory rate,"[2]; MCF-7, group 2 (concentration), fraction, single experiments",0.2385 and 0.2481 and 0.2879
same,ODtreated/ODcontrol,"[2]; MCF-7, group 2 (concentration), single experiments",0.7615 and 0.7519 and 0.7121
same,Inhibitory rate,"[2]; MCF-7, group 4 (concentration), fraction, single experiments",0.3137 and 0.3313 and 0.3802
same,ODtreated/ODcontrol,"[2]; MCF-7, group 4 (concentration), single experiments",0.6863 and 0.6687 and 0.6198
same,Inhibitory rate,"[2]; MCF-7, group 8 (concentration), fraction, single experiments",0.4877 and 0.4713 and 0.472
same,ODtreated/ODcontrol,"[2]; MCF-7, group 8 (concentration), single experiments",0.5123 and 0.5287 and 0.528
same,Inhibitory rate,"[2]; MCF-7, group 16 (concentration), fraction, single experiments",0.5949 and 0.6244 and 0.5636
same,ODtreated/ODcontrol,"[2]; MCF-7, group 16 (concentration), single experiments",0.4051 and 0.3756 and 0.4364
same,Inhibitory rate,"[2]; MCF-7, group 32 (concentration), fraction, single experiments",0.7215 and 0.7706 and 0.7971
same,ODtreated/ODcontrol,"[2]; MCF-7, group 32 (concentration), single experiments",0.2785 and 0.2294 and 0.2029
same,IC50,"[2]; MCF-7, one of three experiments, unit inferred, read-out: IC50, single experiment, MCF-7",8.35 µM and 8.08 µM
same,Inhibitory rate,[2]; [8],0.5407
same,ODtreated/ODcontrol,[2]; [8],0.4593
same,Inhibitory rate,"[2]; given as fraction, second of three experiments",0.5326
same,Inhibition rate,"[2]; given as fraction, third of three experiments",0.5669
same,ODtreated/ODcontrol,[2]; second of three experiments,0.4674
same,ODtreated/ODcontrol,[2]; third of three experiments,0.4331
same,IC50,"[3]; Homo sapiens, KYSE-30, 48 h, MTT, read-out: IC50 KYSE-30",11.7 ± 0.21 µM
same,IC50,"[3]; Homo sapiens, KYSE-30, KYSE-30, one of three experiments, unit inferred, read-out: IC50, single experiment, KYSE-30",11.8 µM
same,inhibition at 16 µM,"[3]; Homo sapiens, preliminary screening, KYSE-30, 16 μM, 48 h, mean±SD, unit inferred, read-out: Inhibition rate (16μM), 48 h, KYSE-30",56.1 ± 4.59%
same,ODtreated/ODcontrol,"[3]; KYSE-30, first of three experiments",0.4595
same,Inhibitory rate,"[3]; KYSE-30, given as fraction, first of three experiments",0.5405
same,Inhibitory rate,"[3]; KYSE-30, given as fraction, second of three experiments",0.5295
same,Inhibitory rate,"[3]; KYSE-30, given as fraction, third of three experiments",0.614
same,Inhibitory rate,"[3]; KYSE-30, group 1 (concentration), fraction, single experiments",0.1337 and 0.126 and 0.1387
same,ODtreated/ODcontrol,"[3]; KYSE-30, group 1 (concentration), single experiments",0.8663 and 0.874 and 0.8613
same,Inhibitory rate,"[3]; KYSE-30, group 2 (concentration), fraction, single experiments",0.1741 and 0.1797 and 0.2087
same,ODtreated/ODcontrol,"[3]; KYSE-30, group 2 (concentration), single experiments",0.8259 and 0.8203 and 0.7913
same,Inhibitory rate,"[3]; KYSE-30, group 4 (concentration), fraction, single experiments",0.2947 and 0.287 and 0.2904
same,ODtreated/ODcontrol,"[3]; KYSE-30, group 4 (concentration), single experiments",0.7053 and 0.713 and 0.7096
same,Inhibitory rate,"[3]; KYSE-30, group 8 (concentration), fraction, single experiments",0.4545 and 0.4401 and 0.4294
same,ODtreated/ODcontrol,"[3]; KYSE-30, group 8 (concentration), single experiments",0.5455 and 0.5599 and 0.5706
same,Inhibitory rate,"[3]; KYSE-30, group 16 (concentration), fraction, single experiments",0.517 and 0.5136 and 0.5274
same,ODtreated/ODcontrol,"[3]; KYSE-30, group 16 (concentration), single experiments",0.483 and 0.4864 and 0.4726
same,Inhibitory rate,"[3]; KYSE-30, group 32 (concentration), fraction, single experiments",0.7126 and 0.7246 and 0.731
same,ODtreated/ODcontrol,"[3]; KYSE-30, group 32 (concentration), single experiments",0.2874 and 0.2754 and 0.269
same,IC50,"[3]; KYSE-30, one of three experiments, unit inferred, read-out: IC50, single experiment, KYSE-30",11.9 µM and 11.5 µM
same,ODtreated/ODcontrol,"[3]; KYSE-30, second of three experiments",0.4705
same,ODtreated/ODcontrol,"[3]; KYSE-30, third of three experiments",0.386
same,"Apoptotic morphological changes, DAPI staining",[4],"cell shrinkage, nuclear condensation, and chromatin fragmentation"
same,Expression of p-H2AX (DNA damage marker),[5],increased the expression of p-H2AX
same,Bax levels,"[6]; HepG2, 2, 4 or 8 μM, 24 h",increased
same,Bax/Bcl-2 ratio,"[6]; HepG2, 2, 4 or 8 μM, 24 h",increased
same,Bcl-2 protein levels,"[6]; HepG2, 2, 4 or 8 μM, 24 h",decreased
same,Expression of cleaved PARP,"[6]; HepG2, vs control",significant increase
same,Expression of cleaved caspase-3,"[6]; HepG2, vs control",significant increase
same,Expression of cleaved caspase-9,"[6]; HepG2, vs control",significant increase
